Consider 4 compounds from PMC5404377 (Bioorganic & medicinal chemistry letters, 2016).

In one test the target is MOR (Rattus norvegicus, UniProt P33535). Nature of the test: [35S]GTPγS assay, agonist efficacy at MOR. Format: biochemical. The note with it: for Emax: read-out: MOR %Emax; for MOR functional profile: [35S]GTPγS. On the technique in general: Binding of GTPγS marks nucleotide exchange on a G protein.
Another test deals with DOR (Rattus norvegicus, UniProt P33533). In words: [35S]GTPγS assay, agonist efficacy at DOR. It counts as biochemical. The note with it: for agonist activity at DOR: [35S]GTPγS.
Sequence of DOR (P33533 whole entry): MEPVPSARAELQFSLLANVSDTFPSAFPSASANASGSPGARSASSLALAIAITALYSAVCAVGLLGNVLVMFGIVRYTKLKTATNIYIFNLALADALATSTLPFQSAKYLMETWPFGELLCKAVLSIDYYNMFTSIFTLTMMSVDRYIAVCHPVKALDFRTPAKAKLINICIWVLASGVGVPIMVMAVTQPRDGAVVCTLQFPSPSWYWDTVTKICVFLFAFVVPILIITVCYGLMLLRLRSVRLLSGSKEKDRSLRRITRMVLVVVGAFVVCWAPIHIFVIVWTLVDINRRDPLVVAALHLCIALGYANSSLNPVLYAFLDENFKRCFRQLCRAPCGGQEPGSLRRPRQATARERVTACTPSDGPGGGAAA
For a further test, the target named is hKOR (Homo sapiens, UniProt P41145). Particulars: read-out: Ki (nM) KOR; literature value; ref [14]; cited from earlier work.
Sequence of hKOR (P41145 whole entry): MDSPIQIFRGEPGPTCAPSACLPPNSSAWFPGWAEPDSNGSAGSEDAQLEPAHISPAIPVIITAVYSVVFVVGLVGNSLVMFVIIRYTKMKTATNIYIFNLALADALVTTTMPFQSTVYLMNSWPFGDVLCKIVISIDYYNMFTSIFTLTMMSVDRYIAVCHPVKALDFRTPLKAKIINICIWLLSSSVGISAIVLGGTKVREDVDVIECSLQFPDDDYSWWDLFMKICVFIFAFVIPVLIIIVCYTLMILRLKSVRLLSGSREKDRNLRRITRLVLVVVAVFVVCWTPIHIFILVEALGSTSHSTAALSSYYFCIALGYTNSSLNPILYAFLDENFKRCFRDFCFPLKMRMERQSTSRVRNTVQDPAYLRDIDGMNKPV
For the next test, the target named is hMOR (Homo sapiens, UniProt P35372). Particulars: read-out: Ki (nM) MOR; literature value; ref [14]; cited from earlier work.
Sequence of hMOR (P35372 whole entry): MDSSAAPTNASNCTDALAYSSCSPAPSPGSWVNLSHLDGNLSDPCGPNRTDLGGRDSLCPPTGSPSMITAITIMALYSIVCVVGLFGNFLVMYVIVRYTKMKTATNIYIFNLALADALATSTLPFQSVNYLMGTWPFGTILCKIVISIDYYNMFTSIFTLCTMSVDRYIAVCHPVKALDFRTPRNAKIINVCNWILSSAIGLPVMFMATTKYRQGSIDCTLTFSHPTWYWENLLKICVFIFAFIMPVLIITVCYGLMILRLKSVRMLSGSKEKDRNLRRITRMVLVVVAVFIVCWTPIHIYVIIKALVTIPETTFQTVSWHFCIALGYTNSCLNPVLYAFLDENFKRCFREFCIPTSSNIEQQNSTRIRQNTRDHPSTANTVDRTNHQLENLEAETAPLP
The test system of test [1] is Male Swiss-Webster mice. In words: Tail-flick nociceptive test. Format: in vivo. Particulars: mouse.
Test [2] concerns Male Swiss-Webster mice. Nature of the test: Hot plate nociception test. Format: in vivo. Particulars: mouse.

Sequence of MOR (P33535 whole entry): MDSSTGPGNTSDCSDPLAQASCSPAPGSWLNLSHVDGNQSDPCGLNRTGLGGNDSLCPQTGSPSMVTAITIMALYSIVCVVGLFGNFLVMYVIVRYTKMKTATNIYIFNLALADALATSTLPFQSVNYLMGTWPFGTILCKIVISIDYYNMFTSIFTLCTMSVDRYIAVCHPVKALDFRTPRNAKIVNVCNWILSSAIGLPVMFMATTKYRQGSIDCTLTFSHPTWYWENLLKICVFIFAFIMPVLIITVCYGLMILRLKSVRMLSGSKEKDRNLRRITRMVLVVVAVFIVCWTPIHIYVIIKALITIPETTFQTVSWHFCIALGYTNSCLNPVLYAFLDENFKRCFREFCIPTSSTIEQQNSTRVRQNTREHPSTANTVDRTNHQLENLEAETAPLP

The term Emax denotes the size of the effect at its maximum, as opposed to the concentration needed. For the compound `O=C1/C(=C/c2ccccc2)C[C@@]2(O)[C@H]3Cc4ccc(O)c5c4[C@@]2(CCN3CCCc2ccccc2)[C@H]1O5` [Compound 8], the Emax on MOR was under 10%.
With `O=C1/C(=C/c2ccccc2)C[C@@]2(O)[C@H]3Cc4ccc(O)c5c4[C@@]2(CCN3CCc2ccccc2)[C@H]1O5` [Compound 7], on DOR, the “agonist activity at DOR” value is on record as “no significant agonist activity”. The maximal response (Emax) on DOR (read-out: DOR %Emax) was under 10%; at MOR it was 52 ± 3.8%. The MOR functional profile result on MOR was “partial agonists”.
One may read the Ki as the dissociation constant of the complex between target and ligand, obtained from inhibition or displacement. As for `O=C1/C(=C/c2ccccc2)C[C@@]2(O)[C@H]3Cc4ccc(O)c5c4[C@@]2(CCN3CC2CC2)[C@H]1O5` [BNTX, benzylidenenaltrexone], the values for the inhibition constant Ki at hKOR and at hMOR were 48 nM and 26 nM, respectively.
In general, EC50 refers to the concentration giving half of the maximal effect. For the compound `CN1CC[C@]23c4c5ccc(O)c4O[C@H]2C(=O)/C(=C/c2ccccc2)C[C@@]3(O)[C@H]1C5` [Compound 6, 7-benzylideneoxymorphone], the “tail-flick antinociception compared to saline control” value in the test on Male Swiss-Webster mice [1] (50 mg/kg s.c., at 70 min (p<0.01)) is “significantly greater antinociception”. In addition, the “tail-flick antinociception compared to saline control” value in the test with Male Swiss-Webster mice [1] (60 mg/kg s.c., at 30 (p<0.001), 50 (p<0.01), 70 (p<0.01) min) is on record as “significantly greater antinociception”. For the same compound, the “time of peak antinociception effects, tail-flick” value in the test on Male Swiss-Webster mice [1] (60 mg/kg s.c., post-administration) worked out at 30 min. Moreover, at DOR, the “agonist activity at DOR” value was “no significant agonist activity”. In addition, in the test on Male Swiss-Webster mice [2] (50 mg/kg s.c., at 30 min (p<0.05)), the “hot plate antinociception compared to saline control” value is listed as “significantly greater antinociception”. Further, in the test on Male Swiss-Webster mice [2] (60 mg/kg s.c., at 30 (p<0.01), 50 (p<0.001), 70 (p<0.05) min), the “hot plate antinociception compared to saline control” value was “significantly greater antinociception”. Besides, the “Emax, hot plate antinociception” value with Male Swiss-Webster mice [2] (s.c., increasing doses 20-60 mg/kg) is “approximately 40 % MPE”. Besides, at MOR, a half-maximal response (EC50) required 72 ± 11 nM, the MOR functional profile entry was “partial agonists” and the maximal effect (Emax) stood at 39 ± 1.3%.
